Reference: patent publication US12194038B2, “Use of flibanserin in preparation of drug for treating androgenic alopecia” (SHANGHAI DIMAIHE BIOTECHNOLOGY CO., LTD., priority 2022, dated 2025)
Values joined by “and” are separate entries in the source; they are usually repeats but may differ in a detail not shown here. Equal entries are not always repeated. Where two headings read alike, the source gives them in different places.

Tests used:
[1] = test system: Lncap cells; details: 48 h
[2] = test system: AGA model mice; test: Hair restoration in testosterone propionate-induced AGA model mice; format: in vivo; details: for Effective rate of animal hair restoration (effective rate of drug) / Hair restoration compared with the model group: AGA model mice, intragastric administration for 4 weeks
Method: Animal experiment-related reagents: testosterone propionate, Batch No. T818615. Soybean oil, Batch No. A23GS146219. 80 mg of testosterone propionate was dissolved in 40 mL of soybean oil to prepare a solution at 2 mg/mL. […] Flibanserin, Batch No. W1608745834, 0.32 mg of flibanserin was dissolved in 20 mL of physiological saline to prepare a solution at 1.6×10^−2 mg/mL
The experimental animals are male […] mice, non-inbred closed colony, weighing 18-22 g, aged 5 weeks, certificate number: No. 202207119, provided by the Institute of Comparative Medicine, Yangzhou University. In the laboratory, room temperature is 20° C.-22° C., the relative humidity is 40%-60%, ventilation is provided by a ventilation fan, and the natural light source is provided for 12 h/day. The mice were caged, with 7 mice per cage, and the cages were cleaned every three days.
Before the injection of testosterone propionate for modeling, pre-treatment was first performed, wherein the pre-treatment comprises: fixing the mice, shaving off the hairs on the back of the mice by an electric shaver, and unhairing vellus hairs using an unhairing cream. […] After successful modeling, the intragastric administration was performed for 4 weeks on the basis of the injection of the testosterone propionate solution. After the administration was completed, the effective rate (percentage of hair restoring mice to the total number of mice) of the drug was subjected to statistical analysis, and the ratio of the area of the hair growing part to the area of the unhairing part in mice was subjected to statistical analysis. The mouse hairs were taken from multiple points at different hair restoring parts on the back of the mice for length measurement and statistical analysis. The mice were sacrificed by cervical dislocation, and the back skin was taken, wherein a part of the back skin was frozen at −80° C. for extracting protein and performing a nuclear protein and cytoplasmic protein separation experiment to explore the inhibition of the drug on the nuclear localization of the androgen receptor dimer, and a part of the back skin was fixed with 4% paraformaldehyde (Cat. No.: AF030) for 48 h, and then subjected to tissue section and HE staining. […] Determination criteria: The unhairing area of the back of the mice after unhairing was measured, noted as A, the hair growing area of the back of the mice after the completion of the administration was measured, noted as B, and the mean value of the […] in each group was taken as the effective rate of animal hair restoration.

[3] = biological target: T1, androgen receptor (Mus musculus, UniProt P19091); test: Nuclear protein and cytoplasmic protein separation experiment in primary hair follicle dermal papilla cells; format: cell-based; details: 48 h
T1 construct: Mouse primary hair follicle dermal papilla cells were extracted according to enzymatic digestion and cultured for 10 days; endogenous in cells; host or cells: mouse primary hair follicle dermal papilla cells
T1 sequence (P19091 1-899): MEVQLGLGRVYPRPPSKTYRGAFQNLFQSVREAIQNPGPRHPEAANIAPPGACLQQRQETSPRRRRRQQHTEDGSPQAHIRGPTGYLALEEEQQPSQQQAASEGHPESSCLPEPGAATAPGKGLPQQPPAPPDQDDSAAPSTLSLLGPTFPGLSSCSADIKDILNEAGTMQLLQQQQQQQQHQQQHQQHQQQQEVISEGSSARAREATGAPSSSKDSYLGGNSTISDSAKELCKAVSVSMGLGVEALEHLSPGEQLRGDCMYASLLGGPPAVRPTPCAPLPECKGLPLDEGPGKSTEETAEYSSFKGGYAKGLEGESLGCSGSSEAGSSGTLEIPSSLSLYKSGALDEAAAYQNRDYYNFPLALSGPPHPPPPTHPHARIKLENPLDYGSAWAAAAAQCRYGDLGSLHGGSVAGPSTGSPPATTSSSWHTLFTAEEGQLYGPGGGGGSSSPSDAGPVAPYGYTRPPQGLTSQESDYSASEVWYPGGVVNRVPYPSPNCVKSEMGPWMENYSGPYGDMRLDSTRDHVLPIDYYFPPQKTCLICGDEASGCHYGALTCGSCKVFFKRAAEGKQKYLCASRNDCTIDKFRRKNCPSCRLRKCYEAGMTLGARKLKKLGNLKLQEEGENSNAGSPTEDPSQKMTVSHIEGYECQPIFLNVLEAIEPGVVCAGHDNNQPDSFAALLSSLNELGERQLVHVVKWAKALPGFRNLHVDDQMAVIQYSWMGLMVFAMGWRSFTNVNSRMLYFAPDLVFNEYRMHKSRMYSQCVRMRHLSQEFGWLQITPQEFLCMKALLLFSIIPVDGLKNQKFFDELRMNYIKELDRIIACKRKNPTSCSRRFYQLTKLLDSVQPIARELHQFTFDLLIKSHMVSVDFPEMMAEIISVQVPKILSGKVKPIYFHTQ

[4] = test system: Lncap cells; test: Inhibition of proliferation of DHT-stimulated Lncap cells by flibanserin (MTT); format: cell-based, human; details: for OD value in administration group-OD value in control group: replicate values
[5] = HE staining of tissue sections, compared with the model group
[6] = DHT 10^−8 mol/L + flibanserin 5 and 1 μmol/L (both doses), compared with finasteride group and DHT group

C[C@]12CCC(=O)C[C@@H]1CC[C@@H]1[C@@H]2CC[C@]2(C)[C@@H](O)CC[C@@H]12 [DHT, dihydrotestosterone]
Mean proliferation rate ([1]; DHT 10^−5 uM): −12.91% | Mean proliferation rate ([1]; DHT 10^−6 uM): 6.30% | Mean proliferation rate ([1]; DHT 10^−7 uM): 7.77% | Mean proliferation rate ([1]; DHT 10^−8 uM): 9.47% | Mean proliferation rate ([1]; DHT 10^−9 uM): 10.01% | Mean proliferation rate ([1]; DHT 10^−10 uM): 2.79%

CC(C)(C)NC(=O)[C@H]1CC[C@H]2[C@@H]3CC[C@H]4NC(=O)C=C[C@]4(C)[C@H]3CC[C@]12C [Finasteride, finasteride]
Effective rate of animal hair restoration (effective rate of drug) [2]: 71.4% | Effective rate of animal hair restoration (effective rate of drug) ([2]; listed as finasteride): 71.4% | Hair restoration compared with the model group ([2]; listed as finasteride): restored to varying degrees

O=c1[nH]c2ccccc2n1CCN1CCN(c2cccc(C(F)(F)F)c2)CC1 [Flibanserin, flibanserin]
Effective rate of animal hair restoration (effective rate of drug) [2]: 85.7% | Effective rate of animal hair restoration (effective rate of drug) ([2]; listed as flibanserin): 85.7% | Hair restoration compared with the model group ([2]; listed as flibanserin): restored to varying degrees | Diameter of hair follicles [2, 5]: increase | Number of hair follicles per unit area [2, 5]: increase | Ratio of anagen to telogen [2, 5]: increase | Ratio of epidermal thickness to dermal thickness [2, 5]: increase | Hair length ([2]; compared with the model group): increase | Total level of the androgen receptor ([3]; DHT 10^−8 mol/L + finasteride 5 μmol/L or flibanserin 5 and 1 μmol/L, compared with DHT group): no significant difference | Level of the androgen receptor in the cytoplasm [3, 6]: increased | Level of the androgen receptor in the nucleus [3, 6]: decreased | inhibition at 0.001 µM ([4]; Homo sapiens, LNCaP, flibanserin 0.001 uM, 48 h, after modeling with 10^−9 M DHT, read-out: Mean proliferation inhibition rate): 11.9% | inhibition at 0.1 µM ([4]; Homo sapiens, LNCaP, flibanserin 0.1 uM, 48 h, after modeling with 10^−9 M DHT, read-out: Mean proliferation inhibition rate): 11% | inhibition at 1 µM ([4]; Homo sapiens, LNCaP, flibanserin 1 uM, 48 h, after modeling with 10^−9 M DHT, read-out: Mean proliferation inhibition rate): 20.1% | inhibition at 10 µM ([4]; Homo sapiens, LNCaP, flibanserin 10 uM, 48 h, after modeling with 10^−9 M DHT, read-out: Mean proliferation inhibition rate): 45.9% | inhibition at 50 µM ([4]; Homo sapiens, LNCaP, flibanserin 50 uM, 48 h, after modeling with 10^−9 M DHT, read-out: Mean proliferation inhibition rate): 82.4% | inhibition at 100 µM ([4]; Homo sapiens, LNCaP, flibanserin 100 uM, 48 h, after modeling with 10^−9 M DHT, read-out: Mean proliferation inhibition rate): 85.5% | OD value in administration group-OD value in control group ([4]; flibanserin 0.001 uM, 48 h): 0.72 and 0.981 and 0.8943 and 0.8405 and 0.9681 | OD value in administration group-OD value in control group ([4]; flibanserin 0.1 uM, 48 h): 0.7821 and 0.9153 and 0.9204 and 0.8399 and 0.9938 | OD value in administration group-OD value in control group ([4]; flibanserin 1 uM, 48 h): 0.7947 and 0.8164 and 0.702 and 0.8345 and 0.8472 | OD value in administration group-OD value in control group ([4]; flibanserin 10 uM, 48 h): 0.3592 and 0.6076 and 0.5562 and 0.5302 and 0.6538 | OD value in administration group-OD value in control group ([4]; flibanserin 50 uM, 48 h): 0.1738 and 0.1424 and 0.1556 and 0.1886 and 0.2218 | OD value in administration group-OD value in control group ([4]; flibanserin 100 uM, 48 h): 0.1345 and 0.1157 and 0.119 and 0.1751 and 0.1812 | Inhibition of the proliferation of Lncap cells ([4]; flibanserin at a low concentration, MTT): can inhibit
